{"source": "paper PMC8185074", "about": "“Anchor extension: a structure-guided approach to design cyclic peptides targeting enzyme active sites” (Nature Communications, 2021)", "format_in_all_cases": "biochemical", "key": {"[1]": {"biological_target": "T1, HDAC2 (Homo sapiens, UniProt Q92769)", "T1 construct": "purchased Reaction Biology Corporation (assay run by the CRO)", "T1 sequence (Q92769 whole entry)": "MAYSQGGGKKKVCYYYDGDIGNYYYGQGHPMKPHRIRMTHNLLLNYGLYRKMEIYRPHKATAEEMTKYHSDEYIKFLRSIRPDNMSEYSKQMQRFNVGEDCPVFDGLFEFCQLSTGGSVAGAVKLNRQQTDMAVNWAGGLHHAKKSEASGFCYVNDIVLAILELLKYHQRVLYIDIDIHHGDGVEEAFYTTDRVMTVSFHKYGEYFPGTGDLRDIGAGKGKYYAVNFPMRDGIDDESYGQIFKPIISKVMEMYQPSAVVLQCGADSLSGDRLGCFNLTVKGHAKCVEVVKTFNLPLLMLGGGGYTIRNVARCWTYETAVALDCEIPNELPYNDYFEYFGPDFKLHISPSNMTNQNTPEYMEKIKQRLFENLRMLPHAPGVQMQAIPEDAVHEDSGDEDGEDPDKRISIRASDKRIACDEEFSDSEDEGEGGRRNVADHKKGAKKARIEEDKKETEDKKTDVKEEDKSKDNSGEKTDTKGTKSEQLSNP", "assay": "HDAC2 inhibition, full IC50 measurement (Reaction Biology; fluorogenic p53 peptide RHKK(Ac)AMC)", "method_in_brief": "(§1)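 Test peptides were dispensed acoustically with enzyme in 50 mM Tris-HCl pH 8.0, 137 mM NaCl, 2.7 mM KCl, 1 mM MgCl2, 1 mg/ml BSA and 1% DMSO. After adding 50 μM RHKK(Ac)AMC, reactions ran 1 h at 30 °C, then developer was added.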"}, "[2]": {"biological_target": "T2, HDAC3 (Homo sapiens, UniProt O15379)", "T2 construct": "purchased Reaction Biology Corporation (assay run by the CRO)", "T2 sequence (O15379 whole entry)": "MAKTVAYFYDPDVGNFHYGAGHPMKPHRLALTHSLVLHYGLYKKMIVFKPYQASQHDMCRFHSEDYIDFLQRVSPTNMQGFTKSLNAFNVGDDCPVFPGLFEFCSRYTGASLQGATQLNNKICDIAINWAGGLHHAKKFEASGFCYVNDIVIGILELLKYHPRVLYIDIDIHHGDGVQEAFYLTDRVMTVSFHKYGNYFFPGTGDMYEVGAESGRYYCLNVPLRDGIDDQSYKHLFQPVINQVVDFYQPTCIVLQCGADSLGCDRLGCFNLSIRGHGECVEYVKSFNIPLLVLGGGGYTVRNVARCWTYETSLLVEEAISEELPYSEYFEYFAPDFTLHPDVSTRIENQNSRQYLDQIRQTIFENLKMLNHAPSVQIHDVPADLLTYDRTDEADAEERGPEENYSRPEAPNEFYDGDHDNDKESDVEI", "T2 sequence (Q9Y618 395-489 partner limits assumed)": "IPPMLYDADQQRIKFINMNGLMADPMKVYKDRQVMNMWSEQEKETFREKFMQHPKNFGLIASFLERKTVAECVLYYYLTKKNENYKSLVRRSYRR", "assay": "HDAC3 inhibition, full IC50 measurement (Reaction Biology; fluorogenic p53 peptide RHKK(Ac)AMC)", "method_in_brief": "as §1"}, "[3]": {"biological_target": "T1, HDAC2", "assay": "Initial HDAC2 IC50 estimate (BPS Biosciences HDAC fluorogenic assay kit)", "details": "Supplementary Dataset 2; read-out: HDAC2 activity (initial activity)", "method_in_brief": "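Inhibition measured by kit-based fluorogenic HDAC activity assays, with each point in duplicate or triplicate. Values come from a full 1 µM–100 pM series (1:10 steps) or are range estimates from just 20 nM and 200 nM.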"}}, "note": "Peptide text beside a SMILES is read from it."}
{"smiles": "CCCC[C@H]1NC(=O)[C@H](Cc2ccccc2)NC(=O)[C@H](CCCCCS)NC(=O)[C@@H](CCCNC(=N)N)NC(=O)[C@H](CC(=O)O)NC(=O)[C@@H](CO)NC(=O)[C@@H](C)NC(=O)[C@H](CCCCN)NC1=O", "note": "[des4.3.1, SHA-Phe-dNle-Lys-dAla-dSer-Asp-dArg] (HELM PEPTIDE1{D.[dR].[O=C([C@H](CCCCCS)N[*:1])[*:2]].F.[CCCC[C@@H](N[*:1])C(=O)[*:2]].K.[dA].[dS]}$PEPTIDE1,PEPTIDE1,1:R1-8:R2$$$V2.0)", "values": [{"measurement": "HDAC2 activity raw data (signal)", "setting": "[1]; Conc. 1.00E-05 M, t1", "result": 97979}, {"measurement": "HDAC2 activity raw data (signal)", "setting": "[1]; Conc. 1.00E-05 M, t2", "result": 118920}, {"measurement": "HDAC2 activity raw data (signal)", "setting": "[1]; Conc. 1.11E-06 M, t1", "result": 710265}, {"measurement": "HDAC2 activity raw data (signal)", "setting": "[1]; Conc. 1.11E-06 M, t2", "result": 678505}, {"measurement": "HDAC2 activity raw data (signal)", "setting": "[1]; Conc. 1.23E-07 M, t1", "result": 1050894}, {"measurement": "HDAC2 activity raw data (signal)", "setting": "[1]; Conc. 1.23E-07 M, t2", "result": 1073616}, {"measurement": "HDAC2 activity raw data (signal)", "setting": "[1]; Conc. 1.37E-08 M, t1", "result": 1089277}, {"measurement": "HDAC2 activity raw data (signal)", "setting": "[1]; Conc. 1.37E-08 M, t2", "result": 1188700}, {"measurement": "HDAC2 activity raw data (signal)", "setting": "[1]; Conc. 1.52E-09 M, t1", "result": 1283576}, {"measurement": "HDAC2 activity raw data (signal)", "setting": "[1]; Conc. 1.52E-09 M, t2", "result": 1146756}, {"measurement": "HDAC2 activity raw data (signal)", "setting": "[1]; Conc. 3.33E-06 M, t1", "result": 321418}, {"measurement": "HDAC2 activity raw data (signal)", "setting": "[1]; Conc. 3.33E-06 M, t2", "result": 369190}, {"measurement": "HDAC2 activity raw data (signal)", "setting": "[1]; Conc. 3.70E-07 M, t1", "result": 905304}, {"measurement": "HDAC2 activity raw data (signal)", "setting": "[1]; Conc. 3.70E-07 M, t2", "result": 972905}, {"measurement": "HDAC2 activity raw data (signal)", "setting": "[1]; Conc. 4.12E-08 M, t1", "result": 1002980}, {"measurement": "HDAC2 activity raw data (signal)", "setting": "[1]; Conc. 4.12E-08 M, t2", "result": 1204296}, {"measurement": "HDAC2 activity raw data (signal)", "setting": "[1]; Conc. 4.57E-09 M, t1", "result": 1158146}, {"measurement": "HDAC2 activity raw data (signal)", "setting": "[1]; Conc. 4.57E-09 M, t2", "result": 1127910}, {"measurement": "HDAC2 activity raw data (signal)", "setting": "[1]; Conc. 5.08E-10 M, t1", "result": 1185807}, {"measurement": "HDAC2 activity raw data (signal)", "setting": "[1]; Conc. 5.08E-10 M, t2", "result": 1137899}, {"measurement": "IC50", "setting": "[1]; unit printed only in the axis title, read-out: HDAC2 IC50 (printed in dose-response picture)", "result": 1500, "unit": "nM"}, {"measurement": "HDAC3 activity raw data (signal)", "setting": "[2]; Conc. 1.00E-05 M, t1", "result": 46115}, {"measurement": "HDAC3 activity raw data (signal)", "setting": "[2]; Conc. 1.00E-05 M, t2", "result": 35378}, {"measurement": "HDAC3 activity raw data (signal)", "setting": "[2]; Conc. 1.11E-06 M, t1", "result": 372696}, {"measurement": "HDAC3 activity raw data (signal)", "setting": "[2]; Conc. 1.11E-06 M, t2", "result": 416274}, {"measurement": "HDAC3 activity raw data (signal)", "setting": "[2]; Conc. 1.23E-07 M, t1", "result": 1045370}, {"measurement": "HDAC3 activity raw data (signal)", "setting": "[2]; Conc. 1.23E-07 M, t2", "result": 1070696}, {"measurement": "HDAC3 activity raw data (signal)", "setting": "[2]; Conc. 1.37E-08 M, t1", "result": 1250439}, {"measurement": "HDAC3 activity raw data (signal)", "setting": "[2]; Conc. 1.37E-08 M, t2", "result": 1300529}, {"measurement": "HDAC3 activity raw data (signal)", "setting": "[2]; Conc. 1.52E-09 M, t1", "result": 1121419}, {"measurement": "HDAC3 activity raw data (signal)", "setting": "[2]; Conc. 1.52E-09 M, t2", "result": 1274974}, {"measurement": "HDAC3 activity raw data (signal)", "setting": "[2]; Conc. 3.33E-06 M, t1", "result": 172249}, {"measurement": "HDAC3 activity raw data (signal)", "setting": "[2]; Conc. 3.33E-06 M, t2", "result": 152173}, {"measurement": "HDAC3 activity raw data (signal)", "setting": "[2]; Conc. 3.70E-07 M, t1", "result": 787295}, {"measurement": "HDAC3 activity raw data (signal)", "setting": "[2]; Conc. 3.70E-07 M, t2", "result": 779442}, {"measurement": "HDAC3 activity raw data (signal)", "setting": "[2]; Conc. 4.12E-08 M, t1", "result": 1318255}, {"measurement": "HDAC3 activity raw data (signal)", "setting": "[2]; Conc. 4.12E-08 M, t2", "result": 1249169}, {"measurement": "HDAC3 activity raw data (signal)", "setting": "[2]; Conc. 4.57E-09 M, t1", "result": 1278679}, {"measurement": "HDAC3 activity raw data (signal)", "setting": "[2]; Conc. 4.57E-09 M, t2", "result": 1136444}, {"measurement": "HDAC3 activity raw data (signal)", "setting": "[2]; Conc. 5.08E-10 M, t1", "result": 1099296}, {"measurement": "HDAC3 activity raw data (signal)", "setting": "[2]; Conc. 5.08E-10 M, t2", "result": 1140869}, {"measurement": "IC50", "setting": "[3]", "result": 350, "unit": "nM"}]}
